The test addresses T1, human DLK (Homo sapiens, UniProt Q12852).
T1 sequence (Q12852 1-859): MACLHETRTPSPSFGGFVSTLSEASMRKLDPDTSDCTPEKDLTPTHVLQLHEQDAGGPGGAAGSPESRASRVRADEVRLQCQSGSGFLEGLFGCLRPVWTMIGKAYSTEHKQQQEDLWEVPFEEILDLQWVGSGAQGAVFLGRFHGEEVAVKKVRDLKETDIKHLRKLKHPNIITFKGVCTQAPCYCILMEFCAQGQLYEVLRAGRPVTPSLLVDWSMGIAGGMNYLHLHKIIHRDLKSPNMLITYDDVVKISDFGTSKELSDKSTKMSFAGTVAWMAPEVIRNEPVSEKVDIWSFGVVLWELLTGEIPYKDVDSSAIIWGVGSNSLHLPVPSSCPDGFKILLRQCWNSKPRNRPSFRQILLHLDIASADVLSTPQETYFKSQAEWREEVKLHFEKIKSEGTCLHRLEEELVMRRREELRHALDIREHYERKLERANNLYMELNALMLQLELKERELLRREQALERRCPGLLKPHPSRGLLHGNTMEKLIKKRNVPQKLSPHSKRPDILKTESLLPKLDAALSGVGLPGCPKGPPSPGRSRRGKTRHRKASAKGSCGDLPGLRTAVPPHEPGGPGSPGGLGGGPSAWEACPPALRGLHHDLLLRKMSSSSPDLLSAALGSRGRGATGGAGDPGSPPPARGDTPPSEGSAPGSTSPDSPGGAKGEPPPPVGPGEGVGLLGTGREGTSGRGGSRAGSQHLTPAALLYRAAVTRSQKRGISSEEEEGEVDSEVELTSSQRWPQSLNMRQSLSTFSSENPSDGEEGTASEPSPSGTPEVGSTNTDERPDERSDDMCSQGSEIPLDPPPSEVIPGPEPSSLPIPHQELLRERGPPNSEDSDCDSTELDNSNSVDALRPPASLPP
Kind of test: DLK Kd Determinations (KINOMEscan KdELECT, DiscoveRx). As to conditions: fusion protein of full length human DLK (amino acids 1-859) and NFkB DNA binding domain; qPCR readout; duplicate. The arrangement: full length of human DLK (amino acids 1-859); host or cells: transiently transfected HEK293 cells; unpurified extract. In a few lines: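 Competition binding of full-length human DLK (aa 1-859)-NFkB DBD fusion, DNA-tagged, from HEK293 extracts against an immobilized ligand; 1 h at room temperature, 0.9% DMSO. Bead-bound kinase was quantified by qPCR. Kd came from an 11-point 3-fold series (top 30,000 nM), in duplicate, with Hill slope fixed at −1.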
One may read the Kd as the free concentration of one partner at which half of the binding sites on the other are occupied at equilibrium, for simple one-to-one binding. A lower Kd goes with tighter binding. The compound `Nc1ncc(-c2cn([C@H]3[C@@H]4CNC[C@@H]43)c(C3CC3)n2)cc1OC(F)F` [Example 96, 5-(1-((1R,5S,6s)-3-azabicyclo[3.1.0]hexan-6-yl)-2-cyclopropyl-1H-imidazol-4-yl)-3-(difluoromethoxy)pyridin-2-amine] registered a Kd of 53 nM.
In the case of `Nc1ncc(-c2cn([C@H]3[C@@H]4CN(CC(F)F)C[C@@H]43)c(CC3CC3)n2)cc1OC(F)(F)F` [Example 98, 5-(2-(cyclopropylmethyl)-1-((1R,5S,6s)-3-(2,2-difluoroethyl)-3-azabicyclo[3.1.0]hexan-6-yl)-1H-imidazol-4-yl)-3-(trifluoromethoxy)pyridin-2-amine] it was 93 nM.
The value for `Nc1ncc(-c2cn([C@H]3[C@@H]4CN(CC(F)(F)F)C[C@@H]43)c(CC3CC3)n2)cc1OC(F)(F)F` [Example 99, 5-(2-(cyclopropylmethyl)-1-((1R,5S,6s)-3-(2,2,2-trifluoroethyl)-3-azabicyclo[3.1.0]hexan-6-yl)-1H-imidazol-4-yl)-3-(trifluoromethoxy)pyridin-2-amine] was 340 nM.
In the case of `COCCN1C[C@@H]2[C@H](C1)[C@H]2n1cc(-c2cnc(N)c(OC(F)(F)F)c2)nc1CC1CC1` [Example 100, 5-(2-(cyclopropylmethyl)-1-((1R,5S,6s)-3-(2-methoxyethyl)-3-azabicyclo[3.1.0]hexan-6-yl)-1H-imidazol-4-yl)-3-(trifluoromethoxy)pyridin-2-amine] it was 66 nM; in that of `Nc1ncc(-c2cn([C@H]3[C@@H]4CN(CCF)C[C@@H]43)c(CC3CC3)n2)cc1OC(F)(F)F` [Example 101, 5-(2-(cyclopropylmethyl)-1-((1R,5S,6s)-3-(2-fluoroethyl)-3-azabicyclo[3.1.0]hexan-6-yl)-1H-imidazol-4-yl)-3-(trifluoromethoxy)pyridin-2-amine], 81 nM; in that of `Nc1ncc(-c2cn([C@H]3[C@@H]4CN(CC(F)(F)F)C[C@@H]43)c(CC3CC3)n2)cc1OC(F)F` [Example 102, 5-(2-(cyclopropylmethyl)-1-((1R,5S,6s)-3-(2,2,2-trifluoroethyl)-3-azabicyclo[3.1.0]hexan-6-yl)-1H-imidazol-4-yl)-3-(difluoromethoxy)pyridin-2-amine], 280 nM.
`Nc1ncc(-c2cn([C@H]3[C@@H]4CN(CC(F)F)C[C@@H]43)c(C3CC3)n2)cc1OC(F)F` [Example 103, 5-(2-cyclopropyl-1-((1R,5S,6s)-3-(2,2-difluoroethyl)-3-azabicyclo[3.1.0]hexan-6-yl)-1H-imidazol-4-yl)-3-(difluoromethoxy)pyridin-2-amine] gave a Kd of 92 nM.
The value for `Nc1ncc(-c2cn([C@H]3[C@@H]4CN(C5COC5)C[C@@H]43)c(C3CC3)n2)cc1OC(F)F` [Example 104, 5-(2-cyclopropyl-1-((1R,5S,6s)-3-(oxetan-3-yl)-3-azabicyclo[3.1.0]hexan-6-yl)-1H-imidazol-4-yl)-3-(difluoromethoxy)pyridin-2-amine] was 66 nM.
In the case of `Nc1ncc(-c2cn([C@H]3[C@@H]4CN(CCF)C[C@@H]43)c(C3CC3)n2)cc1OC(F)F` [Example 106, 5-(2-cyclopropyl-1-((1R,5S,6s)-3-(2-fluoroethyl)-3-azabicyclo[3.1.0]hexan-6-yl)-1H-imidazol-4-yl)-3-(difluoromethoxy)pyridin-2-amine] it was 55 nM; in that of `COCCN1C[C@@H]2[C@H](C1)[C@H]2n1cc(-c2cnc(N)c(OC(F)F)c2)nc1C1CC1` [Example 107, 5-(2-cyclopropyl-1-((1R,5S,6s)-3-(2-methoxyethyl)-3-azabicyclo[3.1.0]hexan-6-yl)-1H-imidazol-4-yl)-3-(difluoromethoxy)pyridin-2-amine], 74 nM.
In turn, `Nc1ncc(-c2cn([C@H]3[C@@H]4CN(CC(F)(F)F)C[C@@H]43)c(C3CC3)n2)cc1OC(F)F` [Example 108, 5-(2-cyclopropyl-1-((1R,5S,6s)-3-(2,2,2-trifluoroethyl)-3-azabicyclo[3.1.0]hexan-6-yl)-1H-imidazol-4-yl)-3-(difluoromethoxy)pyridin-2-amine] gave a dissociation constant Kd of 140 nM. This Kd lies about 1.9-fold higher than the previous one.
The value for `CC(C)c1nc(-c2cnc(N)c(OC(F)(F)F)c2)cn1[C@H]1[C@@H]2CN(CC(F)F)C[C@@H]21` [Example 109, 5-(1-((1R,5S,6s)-3-(2,2-difluoroethyl)-3-azabicyclo[3.1.0]hexan-6-yl)-2-isopropyl-1H-imidazol-4-yl)-3-(trifluoromethoxy)pyridin-2-amine] was 66 nM.
In the case of `CC(C)c1nc(-c2cnc(N)c(OC(F)(F)F)c2)cn1[C@H]1[C@@H]2CN(CC(F)(F)F)C[C@@H]21` [Example 110, 5-(2-isopropyl-1-((1R,5S,6s)-3-(2,2,2-trifluoroethyl)-3-azabicyclo[3.1.0]hexan-6-yl)-1H-imidazol-4-yl)-3-(trifluoromethoxy)pyridin-2-amine] it was 280 nM.
In the case of `CC(C)c1nc(-c2cnc(N)c(OC(F)(F)F)c2)cn1[C@H]1[C@@H]2CN(CCF)C[C@@H]21` [Example 111, 5-(1-((1R,5S,6s)-3-(2-fluoroethyl)-3-azabicyclo[3.1.0]hexan-6-yl)-2-isopropyl-1H-imidazol-4-yl)-3-(trifluoromethoxy)pyridin-2-amine] it was 100 nM.
On to `CC(C)c1nc(-c2cnc(N)c(OC(F)F)c2)cn1[C@H]1[C@@H]2CN(CC(F)F)C[C@@H]21` [Example 112, 5-(1-((1R,5S,6s)-3-(2,2-difluoroethyl)-3-azabicyclo[3.1.0]hexan-6-yl)-2-isopropyl-1H-imidazol-4-yl)-3-(difluoromethoxy)pyridin-2-amine], for which the affinity, expressed as Kd, was 160 nM.
The value for `COCCN1C[C@@H]2[C@H](C1)[C@H]2n1cc(-c2cnc(N)c(OC(F)F)c2)nc1C(C)C` [Example 113, 3-(difluoromethoxy)-5-(2-isopropyl-1-((1R,5S,6s)-3-(2-methoxyethyl)-3-azabicyclo[3.1.0]hexan-6-yl)-1H-imidazol-4-yl)pyridin-2-amine] was 95 nM; that for `CC(=O)N1C[C@@H]2[C@H](C1)[C@H]2n1cc(-c2cnc(N)c(C(F)(F)F)c2)nc1CC1CC1` [Example 114, 1-((1R,5S,6s)-6-(4-(6-amino-5-(trifluoromethyl)pyridin-3-yl)-2-(cyclopropylmethyl)-1H-imidazol-1-yl)-3-azabicyclo[3.1.0]hexan-3-yl)ethan-1-one] was 66 nM.
In the case of `CC(=O)N1C[C@@H]2[C@H](C1)[C@H]2n1cc(-c2cnc(N)c(OC(F)F)c2)nc1CC1CC1` [Example 115, 1-((1R,5S,6s)-6-(4-(6-amino-5-(difluoromethoxy)pyridin-3-yl)-2-(cyclopropylmethyl)-1H-imidazol-1-yl)-3-azabicyclo[3.1.0]hexan-3-yl)ethan-1-one] it was 200 nM; in that of `CC(=O)N1C[C@@H]2[C@H](C1)[C@H]2n1cc(-c2cnc(N)c(OC(F)F)c2)nc1C1CC1` [Example 118, 1-((1R,5S,6s)-6-(4-(6-amino-5-(difluoromethoxy)pyridin-3-yl)-2-cyclopropyl-1H-imidazol-1-yl)-3-azabicyclo[3.1.0]hexan-3-yl)ethan-1-one], 62 nM.
For `Nc1ncc(-c2cn([C@H]3[C@@H]4CNC[C@@H]43)c(CC(F)(F)F)n2)cc1C(F)(F)F` [Example 120, 5-(1-((1R,5S,6s)-3-azabicyclo[3.1.0]hexan-6-yl)-2-(2,2,2-trifluoroethyl)-1H-imidazol-4-yl)-3-(trifluoromethyl)pyridin-2-amine], the dissociation constant (Kd) turned out to be 40 nM.
For the compound `Nc1ncc(-c2cn([C@H]3[C@@H]4CN(CC(F)F)C[C@@H]43)c(CC(F)(F)F)n2)cc1C(F)(F)F` [Example 122, 5-(1-((1R,5S,6s)-3-(2,2-difluoroethyl)-3-azabicyclo[3.1.0]hexan-6-yl)-2-(2,2,2-trifluoroethyl)-1H-imidazol-4-yl)-3-(trifluoromethyl)pyridin-2-amine], the Kd was 120 nM.
As to `Nc1ncc(-c2cn([C@H]3[C@@H]4CN(CCF)C[C@@H]43)c(CC(F)(F)F)n2)cc1C(F)(F)F` [Example 123, 5-(1-((1R,5S,6s)-3-(2-fluoroethyl)-3-azabicyclo[3.1.0]hexan-6-yl)-2-(2,2,2-trifluoroethyl)-1H-imidazol-4-yl)-3-(trifluoromethyl)pyridin-2-amine], the Kd worked out at 65 nM.
The value for `Nc1ncc(-c2cn([C@H]3[C@@H]4CN(CC(F)(F)F)C[C@@H]43)c(CC(F)(F)F)n2)cc1C(F)(F)F` [Example 124, 5-(2-(2,2,2-trifluoroethyl)-1-((1R,5S,6s)-3-(2,2,2-trifluoroethyl)-3-azabicyclo[3.1.0]hexan-6-yl)-1H-imidazol-4-yl)-3-(trifluoromethyl)pyridin-2-amine] was 240 nM.

The record behind these values is patent publication US20180057507A1, “INHIBITORS OF DUAL LEUCINE ZIPPER (DLK) KINASE FOR THE TREATMENT OF DISEASE” (Board of Regents, The University of Texas System, priority 2016, published 2018).
